Target: human TMEM16A (TMEM16Aabc variant) (Homo sapiens, UniProt Q5XXA6, DEL476-501, form not given)
Test: Automated whole-cell patch clamp (Qpatch) TMEM16A potentiator assay in FRT cells stably expressing human TMEM16A
Type: cell-based
Details: for % Potentiation @ 3.33 μM Avg: 3.33 μM solution of test compound, percentage increase of baseline TMEM16A current; for EC50: calculated EC50, Qpatch TMEM16A current at +70 mV
In short: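 FRT cells stably expressing human TMEM16Aabc were recorded by automated whole-cell patch clamp, with intracellular Ca2+ buffered for ~EC20 activation, holding −70 mV and step to +70 mV at 0.05 Hz. Compound was applied cumulatively, 5 min per concentration. Peak current increase as % of baseline was fitted to give EC50 and maximum efficacy.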

Sequence of human TMEM16A (TMEM16Aabc variant) (Q5XXA6 with tags, fused parts or gaps DEL476-501): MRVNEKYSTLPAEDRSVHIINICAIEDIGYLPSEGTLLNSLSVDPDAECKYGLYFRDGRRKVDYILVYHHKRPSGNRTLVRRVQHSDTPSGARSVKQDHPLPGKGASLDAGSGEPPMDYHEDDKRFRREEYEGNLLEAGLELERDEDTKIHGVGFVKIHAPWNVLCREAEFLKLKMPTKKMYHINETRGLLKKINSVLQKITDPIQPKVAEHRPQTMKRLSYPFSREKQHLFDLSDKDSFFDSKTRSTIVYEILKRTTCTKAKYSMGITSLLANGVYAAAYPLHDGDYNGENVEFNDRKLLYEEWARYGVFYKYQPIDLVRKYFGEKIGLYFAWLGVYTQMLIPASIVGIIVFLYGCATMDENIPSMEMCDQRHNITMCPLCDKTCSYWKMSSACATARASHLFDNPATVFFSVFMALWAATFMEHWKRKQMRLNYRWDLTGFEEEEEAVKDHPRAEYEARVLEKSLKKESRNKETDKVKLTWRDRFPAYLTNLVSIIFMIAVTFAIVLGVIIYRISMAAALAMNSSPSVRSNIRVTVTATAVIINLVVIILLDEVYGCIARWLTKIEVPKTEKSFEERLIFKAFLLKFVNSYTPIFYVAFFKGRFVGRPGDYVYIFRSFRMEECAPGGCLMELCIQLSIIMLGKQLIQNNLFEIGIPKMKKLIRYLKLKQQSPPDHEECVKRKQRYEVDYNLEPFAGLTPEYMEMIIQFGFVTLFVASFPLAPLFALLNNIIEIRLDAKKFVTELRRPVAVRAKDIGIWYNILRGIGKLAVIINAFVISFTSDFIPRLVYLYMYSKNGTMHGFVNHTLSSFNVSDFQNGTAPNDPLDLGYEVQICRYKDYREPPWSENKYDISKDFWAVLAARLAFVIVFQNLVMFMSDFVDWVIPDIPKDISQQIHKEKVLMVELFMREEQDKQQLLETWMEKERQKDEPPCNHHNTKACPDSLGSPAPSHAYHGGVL

| SMILES | % Potentiation @ 3.33 μM Avg [%] | EC50 [nM] |
| --- | --- | --- |
| O=C(Cc1cc(Cl)ccc1O)Nc1ccnc(C(=O)N[C@H]2CCC[C@H]2O)c1 [Example 35.19, 4-[[2-(5-Chloro-2-hydroxy-phenyl)acetyl]amino]-N-[(1S,2R)-2-hydroxycyclopentyl]pyridine-2-carboxamide] | 248 | 470 |
| COc1cc(F)ccc1CC(=O)Nc1ccnc(C(=O)NC(C)(C)C)c1 [Example 5.2, N-tert-Butyl-4-[[2-(4-fluoro-2-methoxy-phenyl)acetyl]amino]pyridine-2-carboxamide] | 63 | – |
| CC(C)(C)NC(=O)c1cc(NC(=O)Cc2cc(Cl)ccc2O)c(F)cn1 [Example 28, N-tert-butyl-4-[[2-(5-chloro-2-hydroxy-phenyl)acetyl]amino]-5-fluoro-pyridine-2-carboxamide] | 318 | 400 |
| CC(C)(C)c1ccc(CC(=O)Nc2ccnc(C(=O)NC3(C#N)CCOCC3)c2)cc1O [Example 93.3, 4-[[2-(4-tert-Butyl-3-hydroxy-phenyl)acetyl]amino]-N-(4-cyanotetrahydropyran-4-yl)pyridine-2-carboxamide] | 130 | 60 |
| COc1cccc(O)c1CC(=O)Nc1cccc(C(=O)NC(C)(C)C)c1 [Example 2.6, N-tert-Butyl-3-[[2-(2-hydroxy-6-methoxy-phenyl)acetyl]amino] benzamide] | 140 | 2910 |
| COC(=O)CC1(NC(=O)c2cc(NC(=O)Cc3cc(Cl)ccc3O)ccn2)CCOCC1 [Example 47.1, Methyl2-[4-[[4-[[2-(5-chloro-2-hydroxy-phenyl)acetyl]amino]pyridine-2-carbonyl]amino]tetrahydropyran-4-yl]acetate] | 156 | 1920 |
| CC1(NC(=O)c2cccc(NC(=O)Cc3cc(Cl)ccc3O)c2)CCC1 [Example 7.10, 3-[[2-(5-Chloro-2-hydroxy-phenyl)acetyl]amino]-N-(1-methylcyclobutyl)benzamide] | 218 | 360 |
| CC(C)(C#N)NC(=O)c1cc(NC(=O)CC2CC3CCC2C3)ccn1 (stereo not drawn) [Example 83.6, 4-(2-{Bicyclo[2.2.1]heptan-2-yl}acetamido)-N-(1-cyano-1-methylethyl)pyridine-2-carboxamide] | 248 | – |
| COc1ccccc1-c1cc(C(=O)Nc2ccnc(C(=O)NC(C)(C)C#N)c2)no1 [Example 83.27, N-[2-[(1-Cyano-1-methyl-ethyl)carbamoyl]-4-pyridyl]-5-(2-methoxyphenyl)isoxazole-3-carboxamide] | -11 | – |
| CC(C)(C#N)NC(=O)c1cc(NC(=O)CCC2CCCCC2)ccn1 [Example 83.5, N-(1-Cyano-1-methyl-ethyl)-4-(3-cyclohexylpropanoylamino)pyridine-2-carboxamide] | 185 | – |
| CC(C)(C)NC(=O)c1cccc(NC(=O)Cc2ccccc2)c1 [Example 4.6, N-tert-Butyl-3-[(2-phenylacetyl)amino]benzamide] | 53 | 3860 |
| C#CC1(NC(=O)c2cc(NC(=O)Cc3cc(Cl)ccc3O)ccn2)CCOCC1 [Example 31.4, 4-[[2-(5-Chloro-2-hydroxy-phenyl)acetyl]amino]-N-(4-ethynyltetrahydropyran-4-yl)pyridine-2-carboxamide] | 186 | 20 |
| O=C(Cc1cc(F)ccc1O)Nc1ccnc(C(=O)NC2(CO)CCOC2)c1 (stereo not drawn) [Example 72, 4-[[2-(5-Fluoro-2-hydroxy-phenyl)acetyl]amino]-N-[3-(hydroxymethyl)tetrahydrofuran-3-yl]pyridine-2-carboxamide] | 53 | – |
| COC(C)c1cc(Cl)cc(CC(=O)Nc2ccnc(C(=O)NC(C)(C)C)c2)c1O (stereo not drawn) [Example 62, N-tert-Butyl-4-[[2-[5-chloro-2-hydroxy-3-(1-methoxyethyl)phenyl]acetyl]amino] pyridine-2-carboxamide] | 99 | – |
| C#CC(C)(C)NC(=O)c1cc(NC(=O)Cc2ccc(Cl)c(O)c2)ccn1 [Example 92.2, 4-[[2-(4-Chloro-3-hydroxy-phenyl)acetyl]amino]-N-(1,1-dimethylprop-2-ynyl)pyridine-2-carboxamide] | 71 | 10 |
| O=C(Cc1ccc2ncccc2c1)Nc1ccnc(C(=O)NC2CCOCC2)c1 [Example 63, 4-[[2-(6-Quinolyl)acetyl]amino]-N-tetrahydropyran-4-yl-pyridine-2-carboxamide] | 37 | – |
| Cn1c(=O)c(C(=O)Nc2ccnc(C(=O)NC(C)(C)C#N)c2)cc2ccccc21 [Example 83.32, N-[2-[(1-Cyano-1-methyl-ethyl)carbamoyl]-4-pyridyl]-1-methyl-2-oxo-quinoline-3-carboxamide] | -16 | – |
| CC1(NC(=O)c2cccc(NC(=O)Cc3cc(Cl)ccc3O)c2)CCCCC1 [Example 71.1, 3-[[2-(5-Chloro-2-hydroxy-phenyl)acetyl]amino]-N-(1-methylcyclohexyl)benzamide] | 256 | 250 |

| SMILES | % Potentiation @ 3.33 μM Avg [%] | EC50 [nM] |
| --- | --- | --- |
| CC(C)(C)NC(=O)c1cc(NC(=O)Cc2ccccc2Br)ccn1 [Example 23.13, 4-[[2-(2-bromophenyl)acetyl]amino]-N-tert-butyl-pyridine-2-carboxamide] | 169 | 570 |
| O=C(Cc1cc(Cl)ccc1O)Nc1ccnc(C(=O)Nc2ccccc2)c1 [Example 35.16, 4-[[2-(5-Chloro-2-hydroxy-phenyl)acetyl]amino]-N-phenyl-pyridine-2-carboxamide] | 85 | 330 |
| O=C(Cc1cc(Cl)ccc1O)Nc1ccnc(C(=O)NC2(CCO)CCOCC2)c1 [Example 42, 4-[[2-(5-Chloro-2-hydroxy-phenyl)acetyl]amino]-N-[4-(2-hydroxyethyl)tetrahydropyran-4-yl]pyridine-2-carboxamide] | 143 | 760 |
| CC(C)(CN1CCOCC1)NC(=O)c1cc(NC(=O)Cc2cc(Cl)ccc2O)ccn1 [Example 32.6, 4-[[2-(5-Chloro-2-hydroxy-phenyl)acetyl]amino]-N-(1,1-dimethyl-2-morpholino-ethyl)pyridine-2-carboxamide] | 153 | 820 |
| CC(C)(C)NC(=O)c1cccc(NC(=O)Cc2c(O)cccc2O)c1 [Example 2.4, N-tert-Butyl-3-[[2-(2,6-dihydroxyphenyl)acetyl]amino]benzamide] | 53 | – |
| CC(C)(C)NC(=O)c1cccc(NC(=O)Cc2cc(F)c(F)cc2O)c1 [Example 2.12, N-tert-Butyl-3-[[2-(4,5-difluoro-2-hydroxy-phenyl)acetyl]amino] benzamide] | 111 | 310 |
| CC(C)(C)NC(=O)c1cc(NC(=O)Cc2cc(C#N)ccc2O)ccn1 [Example 6, N-tert-Butyl-4-[[2-(5-cyano-2-hydroxy-phenyl)acetyl]amino]pyridine-2-carboxamide] | 162 | 1140 |
| CC1(NC(=O)c2cccc(NC(=O)Cc3cc(F)ccc3O)c2)CCCCC1 [Example 35.20, 3-[[2-(5-Fluoro-2-hydroxy-phenyl)acetyl]amino]-N-(1-methylcyclohexyl)benzamide] | 240 | 420 |
| Cn1nc(C(C)(C)C)cc1C(=O)Nc1ccnc(C(=O)NC(C)(C)C#N)c1 [Example 83.14, 4-[(5-tert-Butyl-2-methyl-pyrazole-3-carbonyl)amino]-N-(1-cyano-1-methyl-ethyl)pyridine-2-carboxamide] | 70 | – |
| CC(C)(C)NC(=O)c1cc(NC(=O)Cc2cc(Cl)ccc2O)ccn1 [Example 3, N-tert-Butyl-4-[[2-(5-chloro-2-hydroxy-phenyl)acetyl]amino]pyridine-2-carboxamide] | 287 | 110 |
| CC(C)(C)NC(=O)c1cc(NC(=O)Cc2cc(Cl)ccc2O)ccc1O [Example 11, N-tert-Butyl-5-[[2-(5-chloro-2-hydroxy-phenyl)acetyl]amino]-2-hydroxy-benzamide] | 76 | 900 |
| CC(C)(NC(=O)c1cc(NC(=O)Cc2cc(Cl)ccc2O)ccn1)c1ccccc1 [Example 94, 4-[[2-(5-Chloro-2-hydroxy-phenyl)acetyl]amino]-N-(1-methyl-1-phenyl-ethyl) pyridine-2-carboxamide] | 516 | 340 |
| N#CC1(NC(=O)c2cc(NC(=O)Cc3ccccc3Cl)ccn2)CCOCC1 [Example 23.15, 4-[[2-(2-Chlorophenyl)acetyl]amino]-N-(4-cyanotetrahydropyran-4-yl)pyridine-2-carboxamide] | 147 | 1190 |
| C#CC(C)(C)NC(=O)c1cc(NC(=O)Cc2ccc(Cl)cc2O)ccn1 [Example 78, 4-[[2-(4-Chloro-2-hydroxy-phenyl)acetyl]amino]-N-(1,1-dimethylprop-2-ynyl)pyridine-2-carboxamide] | 98 | 20 |
| C#CC(C)(C)NC(=O)c1cc(NC(=O)Cc2c[nH]nc2C(F)(F)F)ccn1 [Example 5.36, N-(1,1-Dimethylprop-2-ynyl)-4-[[2-[3-(trifluoromethyl)-1H-pyrazol-4-yl]acetyl]amino] pyridine-2-carboxamide] | 44 | 60 |
| CC(C)(C)NC(=O)c1cc(NC(=O)NCc2ccccc2Cl)ccn1 [Example 64.5, N-tert-Butyl-4-[(2-chlorophenyl)methylcarbamoylamino]pyridine-2-carboxamide] | 143 | 450 |
| C#CC(C)(C)NC(=O)c1cc(NC(=O)Cc2cc(F)ccc2O)ccn1 [Example 81.3, N-(1,1-Dimethylprop-2-ynyl)-4-[[2-(5-fluoro-2-hydroxy-phenyl)acetyl]amino] pyridine-2-carboxamide] | 129 | 40 |

From patent US20200361871A1 (Enterprise Therapeutics Ltd., priority 2018, published 2020)
